This is an account of results in ChEMBL document CHEMBL1146342, “Respiratory syncytial virus fusion inhibitors. Part 4: optimization for oral bioavailability” (Bioorg Med Chem Lett, 2007).

Data set [1] is described as follows: in vitro. Conditions: human, Caco-2, permeability.
Data set [2] in a line: in vivo. The note with it: rat, plasma, po, 5 mg/kg.
Data set [3] can be described thus: in vivo. Conditions: mouse, plasma, po, 10 mg/kg.
Data set [4] is described as follows: in vivo. The note with it: dog, plasma, po, 0.5 mg/kg.
Data set [5] is described as follows: in vivo. The note with it: cynomolgus monkey, plasma, po, 0.5 mg/kg.
A short description of data set [6]: physchem. Conditions: octanol/water, pH 6.5.

In general, Papp refers to the rate of passage across a membrane or cell layer, normalised by area and donor concentration. With `O=c1n(Cc2nc3ccccc3n2CCCCF)c2cnccc2n1CC(F)(F)F`, the Papp in data set [1] worked out at 24.5 ×10⁻⁶ cm/s.

On to `CC(C)(C)n1c(=O)n(Cc2nc3ccccc3n2CCCC#N)c2cnccc21`, for which the Papp in data set [1] was determined as 21.4 ×10⁻⁶ cm/s.

One may read the AUC as the area under the concentration-time curve, a measure of exposure. The low end stands for low exposure, the high end for high exposure. Consider `CS(=O)(=O)CCCn1c(Cn2c(=O)n(CC(F)(F)F)c3ccncc32)nc2ccccc21`, for which the AUC in data set [2] was 40 ng·h/mL; in data set [3], 1430 ng·h/mL; in data set [4], 307 ng·h/mL; in data set [5] it was 185 ng·h/mL. This compound also gave an apparent permeability (Papp) in data set [1] of 3.6 ×10⁻⁶ cm/s.

Regarding `CCS(=O)(=O)CCCn1c(Cn2c(=O)n(CC(F)(F)F)c3ccncc32)nc2ccccc21`, the AUC is 133 ng·h/mL in data set [2], 2000 ng·h/mL in data set [3], 438 ng·h/mL in data set [4] and 118 ng·h/mL in data set [5].

As usually defined, the logD is the decadic logarithm of the distribution of all forms, ionised or not, between an organic phase and buffer at a given pH. A low value points to a more hydrophilic compound. Consider `N#CCCCn1c(Cn2c(=O)n(C3CC3)c3ccncc32)nc2ccccc21`, for which the AUC in data set [2] is 973 ng·h/mL; in data set [3], 600 ng·h/mL; in data set [4] it was 755 ng·h/mL; in data set [5] it was 270 ng·h/mL. In data set [6], this compound came in with a logD of 2.1.

On to `N#CCCCn1c(Cn2c(=O)n(CC(F)(F)F)c3ccncc32)nc2ccccc21`, for which the Papp in data set [1] is 19.7 ×10⁻⁶ cm/s.

As for `CC(C)n1c(=O)n(Cc2nc3ccccc3n2CCCC#N)c2cnccc21`, the Papp in data set [1] was found to be 16.9 ×10⁻⁶ cm/s.
